# Assay results reported in patent US20250051346A1 (priority 2021, published 2025).
# Read-outs that look alike come from different tables or passages of the source.
# What was measured:
# 5-HT2A [1] = molecular target: T1, 5-HT2A (Homo sapiens, UniProt P28223); test: Serotonin 5-HT2A in vitro cellular IPOne agonism assay; format: cell-based; parameters: host or cells: CHO-K1; details: CHO-K1 cells, 60 min
# Protocol: Serotonin 5-HT2A In Vitro Cellular IPOne Agonism Assay. The 5-HT2A IPOne HTRF assay was performed at Epics Therapeutics S.A. (Belgium, FAST-0505I) using conventional methods. Briefly, CHO-K1 cells expressing human recombinant 5-HT2A receptor grown to mid-log phase in culture media without antibiotics were detached with PBS-EDTA, centrifuged, and resuspended in medium without antibiotics buffer. 20,000 cells are distributed in a 96 well plate and incubated overnight at 37° C. with 5% CO2.
# For agonist testing, the medium was removed and 20 μl of assay buffer plus 20 μl of test compound or reference agonist were added in each well. The plate was incubated for 60 min. at 37° C. with 5% CO2.
# After addition of the lysis buffer containing IP1-d2 and anti-IP1 cryptate detection reagents, plates were incubated 1-hour at room temperature, and fluorescence ratios were measured according to the manufacturer specification, with the HTRF kit.
# 5-HT2A [2] = molecular target: T1, 5-HT2A; test: Serotonin 5-HT2A in vitro radioligand binding competition assay; parameters: purchased Epics Therapeutics S.A. (Belgium), contract assay FAST-0505B; host or cells: membrane extracts; details: [3H]-DOI radiotracer, membrane extracts, read-out: 5HT2A R[…] ACTIVITY
# Protocol: Serotonin 5-HT2A In Vitro Radioligand Binding Competition Assay. The 5-HT2A radioligand binding competition assay was performed at Epics Therapeutics S.A. (Belgium, FAST-0505B) using conventional methods. Briefly, competition binding was performed in duplicate in the wells of a 96 well plate (Master Block, Greiner, 786201) containing binding buffer (optimized for each receptor), membrane extracts (amount of protein/well optimized for each receptor), radiotracer [^3H]-DOI (final concentration optimized for each receptor) and test compound. Nonspecific binding was determined by co-incubation with 200-fold excess of cold competitor. The samples were incubated in a final volume of 0.1 ml at a temperature and for a duration optimized for each receptor and then filtered over filter plates. Filters were washed six times with 0.5 ml of ice-cold washing buffer (optimized for each receptor) and 50 μl of Microscint 20 (Packard) were added in each well. The plates were incubated 15 min on an orbital shaker and then counted with a TopCount™ for 1 min/well.
# T1 sequence (P28223 whole entry): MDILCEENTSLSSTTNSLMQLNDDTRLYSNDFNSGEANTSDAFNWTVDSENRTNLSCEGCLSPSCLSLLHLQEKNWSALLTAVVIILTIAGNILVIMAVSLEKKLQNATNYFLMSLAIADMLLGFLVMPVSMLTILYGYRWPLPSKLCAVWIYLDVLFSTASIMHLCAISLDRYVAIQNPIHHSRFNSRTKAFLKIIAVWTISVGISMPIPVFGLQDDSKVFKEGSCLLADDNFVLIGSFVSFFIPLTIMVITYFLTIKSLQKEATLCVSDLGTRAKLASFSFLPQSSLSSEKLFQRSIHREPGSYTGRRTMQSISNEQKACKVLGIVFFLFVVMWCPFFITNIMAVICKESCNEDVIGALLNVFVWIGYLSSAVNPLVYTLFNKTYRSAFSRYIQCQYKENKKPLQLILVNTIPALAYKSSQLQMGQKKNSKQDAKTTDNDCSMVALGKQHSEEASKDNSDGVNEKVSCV
Compound,EC50 (5-HT2A [1]; benzofurans),IC50 (5-HT2A [2]; benzofurans),EC50 (5-HT2A [1]; benzothiophenes),IC50 (5-HT2A [2]; benzothiophenes)
"CN1CCCc2oc3cc(OC(F)(F)F)ccc3c2C1 [Compound 53, 2-methyl-8-(trifluoromethoxy)-2,3,4,5-tetrahydro-1H-benzofuro[3,2-c]azepine]",> 10000 nM,> 10000 nM,,
"CN1CCCc2oc3cc(OCc4ccccc4)ccc3c2C1 [Compound 54, 8-(benzyloxy)-2-methyl-2,3,4,5-tetrahydro-1H-benzofuro[3,2-c]azepine]",> 10000 nM,101 to 1000 nM,,
"CN1CCCc2oc3cccc(OCc4ccccc4)c3c2C1 [Compound 55, 10-(benzyloxy)-2-methyl-2,3,4,5-tetrahydro-1H-benzofuro[3,2-c]azepine]",> 10000 nM,10 to 100 nM,,
"c1ccc2c3c(sc2c1)CCNCC3 [Compound 65, 2,3,4,5-tetrahydro-1H-benzo[4,5]thieno[2,3-d]azepine]",,,101 to 1000 nM,10 to 100 nM
"FC(F)(F)Oc1ccc2c3c(sc2c1)CCNCC3 [Compound 66, 8-(trifluoromethoxy)-2,3,4,5-tetrahydro-1H-benzo[4,5]thieno[2,3-d]azepine]",,,101 to 1000 nM,101 to 1000 nM
"FC(F)(F)Oc1cccc2sc3c(c12)CCNCC3 [Compound 67, 10-(trifluoromethoxy)-2,3,4,5-tetrahydro-1H-benzo[4,5]thieno[2,3-d]azepine]",,,10 to 100 nM,10 to 100 nM
"FC(F)(F)Oc1cccc2sc3c(c12)CCN(C1CCC1)CC3 [Compound 68, 3-cyclobutyl-10-(trifluoromethoxy)-2,3,4,5-tetrahydro-1H-benzo[4,5]thieno[2,3-d]azepine]",,,1000 to 10000 nM,1000 to 10000 nM
"FC(F)(F)CN1CCc2sc3ccccc3c2CC1 [Compound 69, 3-(2,2,2-trifluoroethyl)-2,3,4,5-tetrahydro-1H-benzo[4,5]thieno[2,3-d]azepine]",,,> 10000 nM,> 10000 nM
"COc1ccc2c3c(sc2c1)CCN(CC(F)(F)F)CC3 [Compound 70, 8-methoxy-3-(2,2,2-trifluoroethyl)-2,3,4,5-tetrahydro-1H-benzo[4,5]thieno[2,3-d]azepine]",,,> 10000 nM,> 10000 nM
"Fc1ccc2c3c(sc2c1)CCN(CC(F)(F)F)CC3 [Compound 71, 8-fluoro-3-(2,2,2-trifluoroethyl)-2,3,4,5-tetrahydro-1H-benzo[4,5]thieno[2,3-d]azepine]",,,> 10000 nM,> 10000 nM
"COc1ccc2c3c(sc2c1)CCN(C1CCC1)CC3 [Compound 74, 3-cyclobutyl-8-methoxy-2,3,4,5-tetrahydro-1H-benzo[4,5]thieno[2,3-d]azepine]",,,> 10000 nM,> 10000 nM
"FC(F)(F)Oc1ccc2c3c(sc2c1)CCN(C1CCC1)CC3 [Compound 76, 3-cyclobutyl-8-(trifluoromethoxy)-2,3,4,5-tetrahydro-1H-benzo[4,5]thieno[2,3-d]azepine]",,,> 10000 nM,1000 to 10000 nM
"c1ccc(COc2ccc3c4c(sc3c2)CCNCC4)cc1 [Compound 77, 8-(benzyloxy)-2,3,4,5-tetrahydro-1H-benzo[4,5]thieno[2,3-d]azepine]",,,> 10000 nM,1000 to 10000 nM
"c1ccc(COc2ccc3c4c(sc3c2)CCN(C2CCC2)CC4)cc1 [Compound 78, 8-(benzyloxy)-3-cyclobutyl-2,3,4,5-tetrahydro-1H-benzo[4,5]thieno[2,3-d]azepine]",,,> 10000 nM,1000 to 10000 nM
"CN1CCc2sc3cc(OCc4ccccc4)ccc3c2CC1 [Compound 79, 8-(benzyloxy)-3-methyl-2,3,4,5-tetrahydro-1H-benzo[4,5]thieno[2,3-d]azepine]",,,> 10000 nM,101 to 1000 nM
"Oc1ccc2c3c(sc2c1)CCNCC3 [Compound 80, 2,3,4,5-tetrahydro-1H-benzo[4,5]thieno[2,3-d]azepin-8-ol]",,,101 to 1000 nM,10 to 100 nM
